Source: PubChem BioAssay (NCI)
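Dose response: 5 concentrations. Exposure: 48 h. Format: 96-well plates. Endpoint: linear interpolation; highest concentration if not reached. TGI: concentration producing complete growth inhibition.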 Where a SMILES comes first, the peptide text is derived from it. The star is where a group is joined. Fmoc = O=C(OCC1c2ccccc2-c2ccccc21)*; Boc = CC(C)(C)OC(=O)*

How the values were obtained:
Assay in all cases: NCI tumour cell line growth inhibition, 48 h
TK-10 renal = tested on: TK-10 renal
OVCAR-3 ovarian = tested on: OVCAR-3 ovarian
COLO 205 colon = tested on: COLO 205 colon
IGROV1 ovarian = tested on: IGROV1 ovarian
NCI-H226 lung = tested on: NCI-H226 lung
SNB-78 CNS = tested on: SNB-78 CNS
DLD-1 colon = tested on: DLD-1 colon
DMS 114 small cell lung = tested on: DMS 114 small cell lung
LXFL 529 NSCLC = tested on: LXFL 529 NSCLC
HOP-18 NSCLC = tested on: HOP-18 NSCLC
KM20L2 colon = tested on: KM20L2 colon
DMS 273 small cell lung = tested on: DMS 273 small cell lung
XF 498 CNS = tested on: XF 498 CNS
M19-MEL melanoma = tested on: M19-MEL melanoma

Row | SMILES | TGI (TK-10 renal) | TGI (OVCAR-3 ovarian) | TGI (COLO 205 colon) | TGI (IGROV1 ovarian) | TGI (NCI-H226 lung) | TGI (SNB-78 CNS) | TGI (DLD-1 colon) | TGI (DMS 114 small cell lung) | TGI (LXFL 529 NSCLC) | TGI (HOP-18 NSCLC) | TGI (KM20L2 colon) | TGI (DMS 273 small cell lung) | TGI (XF 498 CNS) | TGI (M19-MEL melanoma)
1 | Cc1cn(C2CC(O)C(Cn3nncc3Cn3ccc(=O)[nH]c3=O)O2)c(=O)[nH]c1=O (centres undefined) | > 100 µM | > 100 µM | > 100 µM | > 100 µM | > 100 µM |  |  |  |  |  |  |  |  | 
2 | NC1=CN(Cc2ccccc2)C2=N/C(=C\c3ccco3)C(=O)N12 | > 100 µM | > 100 µM | > 100 µM | > 100 µM | > 100 µM |  |  |  |  |  |  |  |  | 
3 | COc1cc2c(cc1OC)C(=O)N1CCCC1C(=O)S2 (centres undefined) | > 100 µM | > 100 µM | > 100 µM | > 100 µM |  | > 100 µM | > 100 µM | > 100 µM | > 100 µM | > 100 µM | > 100 µM | > 100 µM | > 100 µM | 
4 | Cn1c2c(c3c(=O)[nH]ncc31)CCCc1ccccc1-2 | > 100 µM | 86.4 µM | 34.5 µM | 61.6 µM | 86 µM |  |  |  |  |  |  |  |  | 
5 | COc1ccccc1NC1=NCC(C)S1 (centres undefined) | > 100 µM | > 100 µM | > 100 µM | > 100 µM | > 100 µM |  |  |  |  |  |  |  |  | 
6 | Cc1ccc(NCc2nnc3c(-c4ccccc4)nc4ccccc4n23)cc1 | > 100 µM | > 100 µM | 86.6 µM | > 100 µM | > 100 µM |  |  |  |  |  |  |  |  | 
7 | CC(C)[C@H]1NC(=O)[C@H]2N=C(O[C@@H]2C)[C@@H]2CCCN2C(=O)[C@H](Cc2ccccc2)NC(=O)[C@@H]2COC(=N2)[C@@H](Cc2ccccc2)NC(=O)[C@@H]2COC1=N2 | > 100 µM | > 100 µM | > 100 µM | > 100 µM | > 100 µM |  |  |  |  |  |  |  |  | 
8 | CSc1nc(Cl)c2c(n1)Sc1nc3ccccc3n1N=C2 | > 100 µM | 75.8 µM | 57.5 µM | 36.7 µM | > 100 µM |  |  |  |  |  |  |  |  | 
9 | O=c1c2cc([N+](=O)[O-])cnc2sn1-c1ccc(Br)cc1 | > 100 µM | > 100 µM | > 100 µM | > 100 µM | > 100 µM |  |  |  |  |  |  |  |  | 
10 | CC1(C)O[C@@H](CP(c2ccc3ccccc3c2)c2ccc3ccccc3c2)[C@H](CP(c2ccc3ccccc3c2)c2ccc3ccccc3c2)O1 | > 100 µM | > 100 µM | > 100 µM | > 100 µM | > 100 µM |  |  |  |  |  |  |  |  | 
11 | CC(C)(C)OC(=O)NCCCCC(NC(=O)C(Cc1c[nH]c2ccccc12)NC(=O)OCC1c2ccccc2-c2ccccc21)C(=O)O (centres undefined) (Fmoc-Trp-Lys(Boc)-OH; configuration not given here) | > 100 µM | 40.4 µM | > 100 µM | > 100 µM | > 100 µM |  |  |  |  |  |  |  |  | 
12 | O=c1[nH]c(Br)nc2c(N3CCCCC3)c[nH]c12 | > 100 µM | > 100 µM | > 100 µM | > 100 µM | > 100 µM | > 100 µM | > 100 µM | > 100 µM | > 100 µM | > 100 µM | > 100 µM | > 100 µM | > 100 µM | > 100 µM
13 | O=C(O)CCCN=C(C(=NCCCC(=O)O)c1ccccc1)c1ccccc1 | > 100 µM | > 100 µM | > 100 µM | > 100 µM | > 100 µM |  |  |  |  |  |  |  |  | 
14 | O=c1cc(-c2cccc(Br)c2)[nH]c2cc3c(cc12)OCO3 | 28.6 µM | 9.5 µM | > 100 µM | 11.8 µM | 37 µM | 20.5 µM | 31.2 µM | 11 µM | 18.6 µM | 46.7 µM |  | 22.4 µM | 14.5 µM | > 100 µM
15 | CC(C)=C=CC(C)(C)NS(=O)(=O)NC(C)(C)C=C=C(C)C | > 100 µM | > 100 µM | > 100 µM | > 100 µM | > 100 µM |  |  |  |  |  |  |  |  | 
16 | O=C(NC(Cc1ccccc1)P(=O)(O)c1ccccc1)OCc1ccccc1 (centres undefined) | > 100 µM | > 100 µM | > 100 µM | > 100 µM | > 100 µM |  |  |  |  |  |  |  |  | 
17 | Cc1ccc2c(c1)C/C(=C\c1ccccc1C(=O)O)C2=O | > 100 µM | > 100 µM | > 100 µM | > 100 µM | > 100 µM |  |  |  |  |  |  |  |  | 
18 | NC(=O)N=Nc1c2ccccc2n2[nH]ccc12 | > 100 µM | > 100 µM | > 100 µM | > 100 µM | > 100 µM |  |  |  |  |  |  |  |  | 
19 | COc1cccc(-c2cc(=O)c3cc(N4CCCC4)ccc3[nH]2)c1 | > 10 µM | < 0.001 µM | < 0.001 µM | > 10 µM | 0.00347 µM |  |  |  |  |  |  |  |  | 
20 | CCO/N=C(/CC)c1ccc(Br)s1 | > 100 µM | > 100 µM | > 100 µM | > 100 µM | > 100 µM |  |  |  |  |  |  |  |  | 
21 | CC(C)C(=O)CP(=O)(O)O | > 100 µM | > 100 µM | > 100 µM | > 100 µM | > 100 µM |  |  |  |  |  |  |  |  | 
22 | N#CCCN(CCC#N)c1ccc(/C=C2\N=C(c3ccccc3)N(c3ccccc3)C2=O)cc1 | > 100 µM | > 100 µM | > 100 µM | > 100 µM | > 100 µM |  |  |  |  |  |  |  |  | 
23 | COc1cc(N(CCC#N)CCC#N)ccc1/C(N=Nc1cccc(C)c1)=N\NC(=O)c1ccc(C)cc1 | > 100 µM | > 100 µM | > 100 µM | > 100 µM | > 100 µM |  |  |  |  |  |  |  |  | 
24 | Nc1c(O)c(C(=O)O)cc2ccccc12 | > 100 µM | 94.5 µM | 64.1 µM | > 100 µM | 99.8 µM |  |  |  |  |  |  |  |  | 
25 | C[C@]12CC[C@H]3[C@@H](CCC4=CC(=O)CC[C@@]43C)[C@@H]1CC[C@@H]2OC(=O)c1cccc2c(=O)c3ccccc3[nH]c12 | > 100 µM | > 100 µM | > 100 µM | > 100 µM | > 100 µM |  |  |  |  |  |  |  |  | 
26 | CCOC(=O)c1c[nH]c2cc3c(cc2c1=O)CCS3 | > 100 µM | > 100 µM | > 100 µM | > 100 µM | > 100 µM |  |  |  |  |  |  |  |  | 
